# Laboratory results as given in patent US7906106B2, “In vivo cell trafficking” (General Electric Company, priority 2007, dated 2011).
# Tested on: granuloma-derived nucleated cells
# Test: FACS analysis to determine cell viability (7-AAD) after staining with Cy7.5 NHS-ester
# Assay type: cell-based, mouse
# Settings: granuloma-derived nucleated cells stained with 1 μg dye in 10 ml PBS, on ice 20 minutes
# Protocol: Cell Staining. 1 μg of Cy 7.5-NHS ester was mixed in 10 ml of PBS. The cells are resuspended in the buffer and left on ice for 20 minutes. Cells were washed three times in PBS and the cell pellet is placed under Optix scanner to confirm cell staining. The cells were resuspended in PBS and 100 μl of the cell suspension (containing 0.5×10^6 cells/100 μl) was injected via the tail vein. The stained cell pellet generated signal that was detected by the scanner.
# FACS Analysis to Determine Cell Viability. Stained cells were washed three times in PBS and resuspended in 100 μl PBS. The cell suspension was incubated with 20 μl of 7-AAD for 20 minutes at room temperature. The cells are washed once in PBS and resuspended in 500 μl of PBS, then analyzed in FACS for viability.
# FACS Analysis for Cellular Markers. The cells were stained with cell markers for leukocytes (CD45) and monocyte/macrophage (CD 11 b). Both CD11b and CD45 antibodies were purchased from Miltenyi Biotec and stained following vendors instructions. Thus, 10 μl of CD11b PE antibody and 10 μl CD45 FITC were incubated with 1×10^6 cells for 20 minutes. The cells were washed in PBS, resuspend in 0.5 mL PBS, and run on Flow Cytometer (Beckman Coulter FC500 MPL). The cells were viable after staining with Cye7.5 NHS-ester and 72% of cell population in the suspension were positive for CD45 and CD11b.
substance,measurement,value
Cy7.5-NHS ester [Cye7.5 NHS-ester],cell viability after staining,viable
